Test results: patent US9693971B2, “Compositions for alleviating gastrointestinal tract disorders or associated systemic disorders in ruminants and camelids” (FREIE UNIVERSITÄT BERLIN, priority 2012, dated 2017)
“Also recorded” adds a separate entry of the source. Read-outs that look alike come from different tables or passages of the source.

Assays:
[1] = target: TRPM8 (Homo sapiens, UniProt Q7Z2W7); details: cited from earlier work
[2] = target: TRPV1 (Homo sapiens, UniProt Q8NER1); details: cited from earlier work
[3] = target: TRPA1 (Homo sapiens, UniProt O75762); details: cited from earlier work
[4] = test system: rumen epithelium from cattle; test: Ussing chamber: ammonium-induced transepithelial short-circuit current (Isc) across isolated rumen epithelium; assay type: cell-based; details: for influence on ammonium-induced conductivity / transport across rumen epithelium (profile in words): no concentration stated
From the text: The experiments on the intact epithelium take place as already specified (Abdoun, Stumpff et al. 2005; Abdoun, Stumpff et al. 2010). The measuring techniques used are a combination of the Ussing chamber technique developed by Ussing (1949) and the microelectrode technique.
When examining epithelial transport processes with the Ussing chamber, the epithelium is installed in a special chamber, which makes it possible to rinse the two sides of the epithelium (apical: food side; basolateral: blood side) separately of each other with buffer solutions of various composition, wherein the electrophysiological parameters (current and voltage) across the epithelium are traced. Hereby, it is made possible to differentiate between the transport of an uncharged substance (e.g. ammonia, NH3) and the transport of a charged substance (e.g. ammonium, NH4^+), as the former takes place without a change in current and voltage, whereas the latter is coupled with the transfer of a charge and thus changes the transepithelial electrical parameters.
With the help of a special modification, the reaction of individual epithelia to solution changes, taking place very rapidly and smoothly, is also examined over time. Hereby, for example, the reproducibility of a pharmacological intervention on the same piece of epithelium can very well be examined. This modification of the classic Ussing chamber technique is particularly, albeit not exclusively, used for the comparative “screening” of the various substances which are subject of an aspect of the present invention.
The epithelium is horizontally clamped into a modified Ussing chamber, wherein the mucosal side faces upwards. The chamber made of plexi-glass has a cross-section surface of 0.79 cm^2, which is corrected to 1 cm^2. As a protection against damages on the edges of the epithelium, “edge damage”, a silicone ring is in each case placed between chamber and epithelium. The two resulting chambers (mucosal and serosal) are each supplied by their own perfusion system (4-channel-stand-pump, Ismatec SA). With three-way valves, an independent solution change between altogether eight solutions is possible in the two chambers. During storage, the solutions are gassed in their containers with 100% O2. To warm the solutions up to 37° C., the thin perfusion tubes run through a heat exchanger pump. The suction device (Masterflex R/S, Cole Parmer Instrument Company) present in both chambers guarantees a rapid and safe change of solution. In order to ensure that there are no solution change artefacts when adding agonists and antagonists, the substances are pipetted into the respective solution, wherein the gassing ensures a rapid mixing. In this way, pressure fluctuations or an interruption of the flow through the chamber can be safely precluded.
As in the conventional Ussing chamber technique, there are in each case two electrodes near the tissue and two electrodes distant from the tissue for measuring the transepithelial potential difference and the transepithelial current (Isc). The connections between the Ag/AgCl electrodes, which are filled with 3 M KCl, are established via agar bridges. Just as in Strecker (Strecker 2011), the measuring chamber is connected to a “voltage clamp” installation (Ussing chamber unit) in assembly with a microelectrode amplifier (both Biomedical Instruments Co., Germering). A micromanipulator (MF 500) installed above the measuring chamber offers the possibility to move the microelectrode in fine μm steps. Additionally, a microscope as well as a cold-light source are located above the apparatus.
Menthol (Sigma-Aldrich) was dissolved at a concentration of 1 mol·l^−1 in ethanol and pipetted into the used test solution containing ammonium. For an end concentration of 1 mmol·l^−1, 20 μl of this stock solution was added to 20 ml test solution; for 200 μmol·l^−1 correspondingly less. In control experiments, corresponding amounts of pure ethanol were added to the test solution.

Chain of TRPA1 (O75762 whole entry, species assumed): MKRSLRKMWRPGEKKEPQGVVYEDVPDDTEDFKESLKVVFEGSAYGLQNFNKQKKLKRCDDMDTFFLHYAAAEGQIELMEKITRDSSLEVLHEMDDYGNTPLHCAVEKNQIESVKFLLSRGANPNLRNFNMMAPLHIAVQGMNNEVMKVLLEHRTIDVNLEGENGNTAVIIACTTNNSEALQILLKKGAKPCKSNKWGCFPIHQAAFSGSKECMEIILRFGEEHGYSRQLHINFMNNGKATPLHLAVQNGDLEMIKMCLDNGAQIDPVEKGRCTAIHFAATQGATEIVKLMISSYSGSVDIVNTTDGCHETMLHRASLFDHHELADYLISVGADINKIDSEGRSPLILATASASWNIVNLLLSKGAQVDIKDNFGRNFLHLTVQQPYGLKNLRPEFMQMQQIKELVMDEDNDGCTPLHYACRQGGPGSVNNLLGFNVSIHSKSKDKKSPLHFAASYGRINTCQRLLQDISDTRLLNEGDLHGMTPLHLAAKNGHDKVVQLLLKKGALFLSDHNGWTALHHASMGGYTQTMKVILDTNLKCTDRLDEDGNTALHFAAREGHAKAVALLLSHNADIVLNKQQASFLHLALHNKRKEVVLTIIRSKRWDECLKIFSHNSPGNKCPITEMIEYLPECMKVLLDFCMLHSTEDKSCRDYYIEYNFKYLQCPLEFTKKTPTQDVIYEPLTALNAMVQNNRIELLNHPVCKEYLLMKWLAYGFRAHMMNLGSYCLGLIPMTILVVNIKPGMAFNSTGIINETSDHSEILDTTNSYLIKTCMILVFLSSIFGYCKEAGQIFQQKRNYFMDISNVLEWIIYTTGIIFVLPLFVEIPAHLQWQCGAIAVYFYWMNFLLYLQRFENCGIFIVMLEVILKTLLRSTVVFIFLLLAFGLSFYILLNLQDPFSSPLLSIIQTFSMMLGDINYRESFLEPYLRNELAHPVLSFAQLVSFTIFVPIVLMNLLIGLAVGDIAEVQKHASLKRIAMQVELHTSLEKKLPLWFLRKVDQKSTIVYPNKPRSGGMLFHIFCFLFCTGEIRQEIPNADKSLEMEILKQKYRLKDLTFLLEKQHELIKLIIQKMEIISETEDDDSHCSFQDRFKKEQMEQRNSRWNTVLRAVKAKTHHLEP
Chain of TRPM8 (Q7Z2W7 whole entry, species assumed): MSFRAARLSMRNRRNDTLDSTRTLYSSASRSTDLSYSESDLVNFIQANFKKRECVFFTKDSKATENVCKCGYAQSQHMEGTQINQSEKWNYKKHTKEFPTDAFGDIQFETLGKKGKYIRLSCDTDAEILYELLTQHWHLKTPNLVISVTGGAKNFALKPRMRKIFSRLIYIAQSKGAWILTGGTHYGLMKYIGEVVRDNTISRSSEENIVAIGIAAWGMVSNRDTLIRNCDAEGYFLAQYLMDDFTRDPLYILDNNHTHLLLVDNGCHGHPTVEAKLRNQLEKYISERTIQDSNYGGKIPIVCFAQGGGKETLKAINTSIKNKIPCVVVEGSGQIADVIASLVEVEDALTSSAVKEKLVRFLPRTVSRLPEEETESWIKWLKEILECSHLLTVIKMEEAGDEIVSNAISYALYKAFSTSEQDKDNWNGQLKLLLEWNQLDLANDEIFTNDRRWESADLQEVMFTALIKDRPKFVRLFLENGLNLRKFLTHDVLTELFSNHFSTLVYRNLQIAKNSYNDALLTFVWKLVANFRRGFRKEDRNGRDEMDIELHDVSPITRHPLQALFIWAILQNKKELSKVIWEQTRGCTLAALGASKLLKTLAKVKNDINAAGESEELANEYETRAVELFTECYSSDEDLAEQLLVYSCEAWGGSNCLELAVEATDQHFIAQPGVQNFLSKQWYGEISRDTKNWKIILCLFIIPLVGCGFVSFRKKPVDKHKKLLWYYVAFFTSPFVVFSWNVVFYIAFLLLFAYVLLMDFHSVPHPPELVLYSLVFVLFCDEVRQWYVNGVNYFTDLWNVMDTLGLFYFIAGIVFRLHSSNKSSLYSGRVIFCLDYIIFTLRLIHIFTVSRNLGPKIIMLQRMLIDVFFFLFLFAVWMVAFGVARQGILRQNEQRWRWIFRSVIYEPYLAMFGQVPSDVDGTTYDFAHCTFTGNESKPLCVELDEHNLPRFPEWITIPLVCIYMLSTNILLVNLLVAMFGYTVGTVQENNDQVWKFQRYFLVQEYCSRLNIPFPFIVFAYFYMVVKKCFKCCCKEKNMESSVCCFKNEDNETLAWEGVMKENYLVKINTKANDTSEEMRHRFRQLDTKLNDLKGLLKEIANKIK
Chain of TRPV1 (Q8NER1 whole entry, species assumed): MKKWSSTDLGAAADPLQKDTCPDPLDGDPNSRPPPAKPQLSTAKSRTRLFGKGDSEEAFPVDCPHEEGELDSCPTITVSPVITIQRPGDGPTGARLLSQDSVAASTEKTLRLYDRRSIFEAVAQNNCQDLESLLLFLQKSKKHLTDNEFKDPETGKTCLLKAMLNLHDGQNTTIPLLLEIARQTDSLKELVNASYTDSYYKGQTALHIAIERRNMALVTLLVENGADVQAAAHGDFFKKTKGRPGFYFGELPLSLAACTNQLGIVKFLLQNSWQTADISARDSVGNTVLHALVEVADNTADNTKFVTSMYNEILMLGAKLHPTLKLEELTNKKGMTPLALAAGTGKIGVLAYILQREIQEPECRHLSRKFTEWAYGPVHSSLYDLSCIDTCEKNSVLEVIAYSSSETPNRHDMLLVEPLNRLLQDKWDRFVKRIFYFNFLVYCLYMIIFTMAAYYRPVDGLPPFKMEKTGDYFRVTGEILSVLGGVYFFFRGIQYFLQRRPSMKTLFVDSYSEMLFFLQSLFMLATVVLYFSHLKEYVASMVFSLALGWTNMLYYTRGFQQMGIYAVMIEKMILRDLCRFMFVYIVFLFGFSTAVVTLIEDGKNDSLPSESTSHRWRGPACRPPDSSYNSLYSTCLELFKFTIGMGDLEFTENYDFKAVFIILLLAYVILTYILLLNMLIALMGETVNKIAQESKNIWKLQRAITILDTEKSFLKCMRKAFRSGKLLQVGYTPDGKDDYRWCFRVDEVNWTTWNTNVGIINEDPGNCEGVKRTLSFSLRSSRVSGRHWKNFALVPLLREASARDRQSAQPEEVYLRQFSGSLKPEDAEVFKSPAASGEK

Compound: CCO [Ethanol]
- Effect on TRPM8 [1]: Antagonist

Compound: COc1cc(CCC(C)=O)ccc1O [Vanillylacetone, vanillylacetone]
- Effect on TRPV1 [2]: Agonist

Compound: CC1(C)CCC[C@]2(C)[C@@H](C=O)C(C=O)=CC[C@@H]12 [Polygodial, polygodial]
- Effect on TRPV1 [2]: Agonist

Compound: S=C=NCCc1ccccc1 [Phenylethyl isothiocyanate, phenylethyl isothiocyanate]
- Effect on TRPA1 [3]: Agonist

Compound: O=C1NC(c2cccc([N+](=O)[O-])c2)=CCN1c1ccccc1O [Icilin, icilin]
- Effect on TRPM8 [1]: Agonist

Compound: CC(C)N=C=S [Isopropyl isothiocyanate, isopropyl isothiocyanate]
- Effect on TRPA1 [3]: Agonist

Compound: Oc1cc2c(cc1O)CN(C(=S)NCCc1ccc(Cl)cc1)CCC2 [Capsazepine, capsazepine]
- Effect on TRPV1 [2]: Antagonist

Compound: CC1(C)C[C@H]2C=C(C=O)[C@]3(C=O)C[C@]3(C)[C@H]2C1 [Isovelleral, isovelleral]
- Effect on TRPV1 [2]: Agonist

Compound: CC(C)=CCC/C(C)=C/CO [Geraniol, geraniol]
- Effect on TRPM8 [1]: Agonist
- Effect on TRPM8 ([1]; listed as geraniol): potent TRPM8 agonist

Compound: CN=C=S [Methyl isothiocyanate, methyl isothiocyanate]
- Effect on TRPA1 [3]: Agonist

Compound: O=CC=Cc1ccccc1 [cinnamaldehyde]
- transepithelial current, MV ([4]; cinnamaldehyde (concentration not given) in 40 mM NH4^+, n=7, before −31.53, p = 0.313): −28.39 μA · cm^−2
- transepithelial current, Median ([4]; cinnamaldehyde in 40 mM NH4^+, n=7, before −26.52): −24.03 μA · cm^−2
- influence on ammonium-induced conductivity / transport across rumen epithelium (profile in words) [4]: inhibiting profile
- Effect on TRPM8 [1]: Antagonist
- Effect on TRPA1 [3]: potent TRPA1 agonists; also recorded: Agonist

Compound: CC(C)[C@@H]1CC[C@@H](C)CC1=O [Menthone, menthone]
- Effect on TRPM8 [1]: Agonist
- Effect on TRPM8 ([1]; listed as menthone): potent TRPM8 agonist

Compound: C=C(C)[C@@H]1CC=C(C)C(=O)C1 [L-carvone, 1-carvone]
- Effect on TRPM8 [1]: Agonist

Compound: C=CC(C)(O)CCC=C(C)C (stereo not drawn) [Linalool, linalool]
- Effect on TRPM8 [1]: Agonist

Compound: CC1CCC(C(C)(C)O)C(O)C1 (stereo not drawn) [Cis- and trans-p-menthane-3,8-diol, p-menthane-3,8-diol]
- Effect on TRPM8 [1]: Agonist

Compound: COc1ccc(CCN(C)CCCC(C#N)(c2ccc(OC)c(OC)c2)C(C)C)cc1OC (stereo not drawn) [verapamil]
- change of transepithelial current ([4]; 1 mmol·l^−1 added to solution containing ammonium): the current drops

Compound: CC12CCC(CC1)C(C)(C)O2 [Eucalyptol, eucalyptol]
- Effect on TRPM8 [1]: Agonist
- Effect on TRPM8 ([1]; listed as eucalyptol): potent TRPM8 agonist

Compound: CC(CC=O)CCCC(C)(C)O (stereo not drawn) [Hydroxyl-citronellal, hydroxyl-citronellal]
- Effect on TRPM8 [1]: Agonist

Compound: C=C(C)[C@@H]1CC[C@@H](C)C[C@H]1O [Isopulegol, isopulegol]
- Effect on TRPM8 [1]: Agonist

Compound: CC1CCC(C(C)C)C(OC(=O)C(C)O)C1 (stereo not drawn) [Menthyl lactate, menthyl lactate]
- Effect on TRPM8 [1]: Agonist

Compound: C=CCS[S+]([O-])CC=C (stereo not drawn) [Allicin, allicin]
- Effect on TRPA1 [3]: Agonist

Compound: COC(=O)c1ccccc1O [methyl salicylate]
- influence on ammonium-induced conductivity / transport across rumen epithelium (profile in words) [4]: inhibiting profile
- transepithelial current after addition (maximum reduction) ([4]; reduced from −25.44±1.8, n=4, not (yet) significant): −21.06±2.97 μA·cm^−2
- Effect on TRPA1 [3]: potent TRPA1 agonists
- Effect on TRPA1 ([3]; listed as Methyl salicilate): Agonist

Compound: N [NH4^+, ammonium]
- transepithelial current, MV ([4]; 40 mM NH4^+ replacing NMDG+, n=37, NaCl before −2.43, after washout −2.68): −25.73 μA · cm^−2
- transepithelial current, Median ([4]; 40 mM NH4^+ replacing NMDG+, n=37, NaCl median −3.60): −22.32 μA · cm^−2

Compound: S=C=NCc1ccccc1 [Benzyl isothiocyanate, benzyl isothiocyanate]
- Effect on TRPA1 [3]: Agonist

Compound: C=CCN=C=S [Allyl isothiocyanate, allyl isothiocyanate]
- Effect on TRPA1 [3]: Agonist
